Broadly, the IC50 is the point on the concentration scale where inhibition reaches its midpoint.

Molecules are shown by their SMILES.

Results on 1 compound are retold here after ChEMBL document CHEMBL5252648, “Design, synthesis and bioactivity evaluation of a series of quinazolinone derivatives as potent PI3Kγ antagonist” (Bioorg Med Chem, 2023).

Assay [1] concerns Jurkat. As to the kind of experiment: Induction of apoptosis against human Jurkat cells assessed as viable cells at 10 uM measured for 24 hrs by Annexin V-FITC/propidium iodide staining based flow cytometry (reference value: 94.2 %). To be noted: read-out: Activity. It is filed as functional.
Assay [2] relates to Jurkat. As to the kind of experiment: Upregulation of phosphorylated p38 protein expression in human Jurkat cells measured for 3 hrs. The settings on record: dose 0.1-10 µM. It is filed as functional, cell-based.
Assay [3] addresses Phosphatidylinositol 4,5-bisphosphate 3-kinase catalytic subunit gamma isoform (Homo sapiens, UniProt P48736). As to the kind of experiment: Antagonist activity at PI3Kgamma (unknown origin) using PIP2 as substrate in presence of ATP incubated for 30 to 60 mins by ADP-glo based luminescence assay. For orientation: In ADP-Glo the light output rises with the ADP produced.
In assay [4] the test system is Jurkat. Kind of assay: Downregulation of phosphorylated AKT protein expression in human Jurkat cells measured for 3 hrs. Type of assay: functional, cell-based. The settings on record: dose 0.1-10 µM.

Chain of Phosphatidylinositol 4,5-bisphosphate 3-kinase catalytic subunit gamma isoform (P48736 whole entry, canonical isoform): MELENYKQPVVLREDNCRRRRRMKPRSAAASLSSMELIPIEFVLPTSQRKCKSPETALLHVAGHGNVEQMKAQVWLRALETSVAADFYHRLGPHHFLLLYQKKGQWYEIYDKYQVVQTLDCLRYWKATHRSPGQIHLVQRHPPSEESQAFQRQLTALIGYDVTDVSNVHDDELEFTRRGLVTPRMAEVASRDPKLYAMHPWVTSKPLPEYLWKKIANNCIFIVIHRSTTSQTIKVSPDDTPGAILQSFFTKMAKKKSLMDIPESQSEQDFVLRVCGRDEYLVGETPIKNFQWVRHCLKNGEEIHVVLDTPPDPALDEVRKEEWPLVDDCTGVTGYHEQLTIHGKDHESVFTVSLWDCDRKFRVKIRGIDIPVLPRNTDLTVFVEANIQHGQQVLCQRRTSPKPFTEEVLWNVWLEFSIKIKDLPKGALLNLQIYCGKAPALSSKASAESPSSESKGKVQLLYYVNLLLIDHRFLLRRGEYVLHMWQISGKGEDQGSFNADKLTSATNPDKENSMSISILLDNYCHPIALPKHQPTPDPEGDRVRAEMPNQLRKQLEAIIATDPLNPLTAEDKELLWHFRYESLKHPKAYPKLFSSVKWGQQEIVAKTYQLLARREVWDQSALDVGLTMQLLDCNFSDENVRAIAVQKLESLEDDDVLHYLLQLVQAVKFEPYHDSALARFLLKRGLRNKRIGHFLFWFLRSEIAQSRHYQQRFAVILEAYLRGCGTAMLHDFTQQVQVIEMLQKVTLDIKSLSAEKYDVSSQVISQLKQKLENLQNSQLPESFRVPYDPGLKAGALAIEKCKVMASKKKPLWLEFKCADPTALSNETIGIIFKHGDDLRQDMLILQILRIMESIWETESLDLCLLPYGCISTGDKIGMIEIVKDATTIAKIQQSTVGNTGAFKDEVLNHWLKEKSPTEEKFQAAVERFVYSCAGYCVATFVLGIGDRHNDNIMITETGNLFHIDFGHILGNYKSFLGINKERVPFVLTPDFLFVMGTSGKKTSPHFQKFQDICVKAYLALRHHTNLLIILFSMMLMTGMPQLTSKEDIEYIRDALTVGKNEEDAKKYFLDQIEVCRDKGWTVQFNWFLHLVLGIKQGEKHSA

For `COc1ccc(C#Cc2cccc3cc(C(C)Nc4ncnc5[nH]cnc45)n(-c4ccccc4)c(=O)c23)cc1` (centres undefined), the viability at 10 µM with Jurkat [1] is 30.2%. Further, the Activity entry in the assay with Jurkat [2] and in the assay on Jurkat [4] was “Dose-Dependent Effect” in each case. Moreover, the IC50 in assay [3] amounted to 0.208 µM.
